Laboratory results as given in US20240342150A1 (priority 2021, published 2024).

Tests used:
SARS-CoV-2 variant D614G = assay type: cell-based
SARS-CoV-2 variants = assay: microbe, parasite or virus in culture; assay type: cell-based

SMILES: O=C(c1ccc(OCCN2CCCCC2)cc1)c1c(-c2ccc(O)cc2)sc2cc(O)ccc12 [Raloxifene, 1-[6-hydroxy-2-(4-hydroxyphenyl)benzo[b]thien-3-yl]-1-[4-[2-(1-piperidinyl)ethoxy]phenyl]methanone]
- IC50 (SARS-CoV-2 variant D614G): 7.48 µM
- IC50 (SARS-CoV-2 variants; Severe acute respiratory syndrome coronavirus 2, Vero C1008, read-out: IC50 calculated on recovering of cell viability): 4.5 to 7.99 µM
- recovery of viability in infected Vero E6 cells (SARS-CoV-2 variants; all the tested viral variants): able to recover viability
